Read-outs that look alike come from different tables or passages of the source.
Key:
[1] = biological target: T1, Arabidopsis HPPD variant Q293N (Arabidopsis thaliana, UniProt P93836, Q293N); experiment: HPPD activity assay, mutant enzyme; type: biochemical
T1 construct: His6 (N); made in house; host or cells: E. coli BL21 (DE3)
Method: (§1) HPPD produces homogentisic acid and CO2 from 4-hydroxyphenylpyruvate (4-HPP) and O2. The activity assay for HPPD is based on the analysis of homogentisic acid by reversed phase HPLC.
(§2) The assay mixture can contain 150 mM potassium phosphate buffer pH 7.0, 50 mM L-ascorbic acid, 1 μM FeSO4 and 7 μg of purified enzyme in a total volume of 1 ml.
(§3) Inhibitors are dissolved in DMSO (dimethylsulfoxide) to a concentration of 20 mM or 0.5 mM, respectively. From this stock solution serial five-fold dilutions are prepared in DMSO, which are used in the assay. The respective inhibitor solution accounts for 1% of the assay volume. Thus, final inhibitor concentrations range from 200 μM to 2.5 nM or from 5 μM to 63 pM, respectively.
(§4) After a preincubation of 30 min the reaction is started by adding 4-HPP to a final concentration of 0.1 mM. The reaction is allowed to proceed for 120 min at room temperature. The reaction is stopped by addition of 100 μl of 4.5 M phosphoric acid.
(§5) The sample is extracted on an Oasis® HLB cartridge 3 cc/60 mg (Waters) that was preequilibrated with 63 mM phosphoric acid. L-ascorbic acid is washed out with 3 ml of 63 mM phosphoric acid. Homogentisate is eluted with 1 ml of a 1:1 mixture of 63 mM phosphoric acid and methanol (w/w).
(§6) 10 μl of the eluate is analyzed by reversed phase HPLC on a Symmetry® C18 column (particle size 3.5 μm, dimensions 4.6×100 mm; Waters) using 5 mM H3PO4/15% ethanol (w/w) as an eluent.
(§7) Homogentisic acid is detected electrochemically and quantified by measuring peak areas (Empower software; Waters).
(§8) Activities are normalized by setting the uninhibited enzyme activity to 100%. IC50 values are calculated using non-linear regression.
(§9) The assay mixture can contain 150 mM potassium phosphate buffer pH 7.0, 50 mM L-ascorbic acid, 100 μM Catalase (Sigma-Aldrich), 1 μM FeSO4 and 0.2 units of purified HPPD enzyme in a total volume of 505 μl. 1 unit is defined as the amount of enzyme that is required to produce 1 nmol of HGA per minute at 20° C.
(§10) After a preincubation of 30 min the reaction is started by adding 4-HPP to a final concentration of 0.05 mM. The reaction is allowed to proceed for 45 min at room temperature. The reaction is stopped by the addition of 50 μl of 4.5 M phosphoric acid. The sample is filtered using a […] pore size PVDF filtration device.
(§11) 5 μl of the cleared sample is analyzed on an Atlantis T3 column (particle size 3 μm, dimensions 3×50 mm; Waters) by isocratic elution using 90% 10 mM NaH2PO4 pH 2.2, 10% methanol (v/v).
(§12) HGA is detected electrochemically at 750 mV (mode: DC; polarity: positive) and quantified by integrating peak areas (Empower software; Waters).
(§13) Inhibitors are dissolved in DMSO (dimethylsulfoxide) to a concentration of 0.5 mM. From this stock solution serial five-fold dilutions are prepared in DMSO, which are used in the assay. The respective inhibitor solution accounts for 1% of the assay volume. Thus, final inhibitor concentrations range from 5 μM to 320 pM, respectively. Activities are normalized by setting the uninhibited enzyme activity to 100%. IC50 values are calculated using non-linear regression.
(§14) Purified, mutant HPPD enzymes are obtained by the methods described above. Dose response and kinetic measurements are carried out using the described HPPD activity assay. Apparent michaelis constants (Km) and maximal reaction velocities (Vmax) are calculated by non-linear regression with the software GraphPad Prism 5 (GraphPad Software, La Jolla, USA) using a substrate inhibition model. Apparent kcat values are calculated from Vmax assuming 100% purity of the enzyme preparation. Weighted means (by standard error) of Km and IC50 values are calculated from at least three independent experiments. The Cheng-Prusoff equation for competitive inhibition (Cheng, Y. C.; Prusoff, W. H. Biochem Pharmacol 1973, 22, 3099-3108) is used to calculate dissociation constants (Ki). Examples of the data obtained are depicted in Table 13.

[2] = biological target: T2, Arabidopsis HPPD variant Q293H (Arabidopsis thaliana, UniProt P93836, Q293H); experiment: HPPD activity assay, mutant enzyme; type: biochemical
T2 construct: His6 (N); made in house; host or cells: E. coli BL21 (DE3)
Method: as §1, §2, §3, §4, §5, §6, §7, §8, §9, §10, §11, §12, §13, §14

[3] = biological target: T3, Arabidopsis HPPD (Arabidopsis thaliana, UniProt P93836); experiment: HPPD activity assay (homogentisic acid by HPLC), wildtype enzyme; type: biochemical; settings: Table 11, calculated from IC50 with Cheng-Prusoff equation, read-out: dissociation constant Ki
T3 construct: His6 (N); made in house; host or cells: E. coli BL21 (DE3)
T3 sequence (P93836 1-445): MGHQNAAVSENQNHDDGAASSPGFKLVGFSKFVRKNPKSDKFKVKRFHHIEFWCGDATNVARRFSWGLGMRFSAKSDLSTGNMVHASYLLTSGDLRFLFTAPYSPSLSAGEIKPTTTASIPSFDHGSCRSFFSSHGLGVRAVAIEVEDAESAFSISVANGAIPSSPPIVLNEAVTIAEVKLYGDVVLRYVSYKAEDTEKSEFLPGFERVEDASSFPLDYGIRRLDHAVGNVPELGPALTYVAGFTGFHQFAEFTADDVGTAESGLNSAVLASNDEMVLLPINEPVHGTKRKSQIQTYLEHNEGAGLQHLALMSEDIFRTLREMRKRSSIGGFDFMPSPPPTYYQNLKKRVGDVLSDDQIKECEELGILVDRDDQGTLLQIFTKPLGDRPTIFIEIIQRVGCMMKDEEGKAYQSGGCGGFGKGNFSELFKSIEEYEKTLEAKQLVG
Method: as §1, §2, §3, §4
The sample is extracted on an Oasis® HLB cartridge 3 cc/60 mg (Waters) that was preequilibrated with 63 mM phosphoric acid. L-ascorbic acid is washed out with 3 ml of 63 mM phosphoric acid. […]
as §6, §7
Activities are normalized by setting the uninhibited enzyme activity to 100%. IC50 values are calculated using non-linear regression. […]
as §11, §12
Inhibitors are dissolved in DMSO (dimethylsulfoxide) to a concentration of 0.5 mM. […] IC50 values are calculated using non-linear regression. […]

[4] = biological target: Chlamydomonas HPPD1 (Chlamydomonas reinhardtii, UniProt A0A2K3DET7); experiment: HPPD activity assay, wildtype enzyme; type: biochemical; settings: calculated from IC50 with Cheng-Prusoff equation, read-out: dissociation constant Ki
Method: as §1, §2
Inhibitors are dissolved in DMSO (dimethylsulfoxide) to a concentration of 20 mM or 0.5 mM, respectively. From this stock solution serial five-fold dilutions are prepared in DMSO, which are used in the assay. The respective inhibitor solution accounts for 1% of the assay volume.
as §4, §8
The assay mixture can contain 150 mM potassium phosphate buffer pH 7.0, 50 mM L-ascorbic acid, 100 μM Catalase (Sigma-Aldrich), 1 μM FeSO4 and 0.2 units of purified HPPD enzyme in a total volume of 505 μl. […]
as §12
Inhibitors are dissolved in DMSO (dimethylsulfoxide) to a concentration of 0.5 mM. […] IC50 values are calculated using non-linear regression.
Using methods which are described in the above examples or well known in the art, purified, recombinant wildtype HPPD enzymes are characterized with respect to their kinetic properties and sensitivity towards HPPD inhibiting herbicides. Apparent michaelis constants (Km) and maximal reaction velocities (Vmax) are calculated by non-linear regression with the software GraphPad Prism 5 (GraphPad Software, La Jolla, USA) using a substrate inhibition model. […] Weighted means (by standard error) of Km and IC50 values are calculated from at least three independent experiments.

[5] = test system: Chlamydomonas strain CMr15; experiment: Growth inhibition of Chlamydomonas strains (tolerance); type: cell-based, Chlamydomonas reinhardtii
Method: (§15) Algae cells of Chlamydomonas reinhardtii strains CC-503 and CC-1691 (Duke University, Durham, USA) are propagated in TAP medium (Gorman and Levine (1965) PNAS 54: 1665-1669) by constant shaking at 100 rpm, 22° C. and 30 μmol Phot*m^−2*[…] light illumination. Scenedesmus obliquus (University of Gottingen, Germany) are propagated in algae medium as described (Boger and Sandmann, (1993) In: Target assays for modern herbicides and related phytotoxic compounds, Lewis Publishers) under same culturing conditions as mentioned for Chlamydomonas. Compound screening is performed at 450 μmol Phot*m^−2*[…] illumination.
(§16) Sensitive strains of Chlamydomonas reinhardtii or Scenedesmus obliquus (Tables 14, 15) are mutated with 0.14 […] (EMS) for 1 h as described by Loppes (1969, Mol Gen Genet. 104: 172-177) Tolerant strains are identified by screening of mutagenized cells on solid nutrient solution plates containing “coumarone-derivative herbicides” or other HPPD inhibiting herbicides at wildype-lethal concentrations. Examples of the data obtained are depicted in Table 16 and FIG. 2.

[6] = test system: Chlamydomonas strain CMr10; experiment: as above; type: cell-based, Chlamydomonas reinhardtii; settings: read-out: IC50 of growth inhibition
Method: as §15, §16

[7] = test system: Chlamydomonas strain CMr13; experiment: as above; type: cell-based, Chlamydomonas reinhardtii; settings: read-out: IC50 of growth inhibition
Method: as §15, §16

[8] = test system: Chlamydomonas strain CC1961 wild-type; experiment: as above; type: cell-based, Chlamydomonas reinhardtii; settings: read-out: IC50 of growth inhibition
Method: as §15, §16

[9] = test system: Chlamydomonas strain CMr06; experiment: as above; type: cell-based, Chlamydomonas reinhardtii
Method: as §15, §16

[10] = test system: Chlamydomonas strain CMr04; experiment: as above; type: cell-based, Chlamydomonas reinhardtii
Method: as §15, §16

[11] = test system: Chlamydomonas strain CMr05; experiment: as above; type: cell-based, Chlamydomonas reinhardtii
Method: as §15, §16

[12] = test system: C. reinhardtii (CC-503); experiment: C. reinhardtii growth inhibition by HPPD inhibiting herbicides; type: cell-based, Chlamydomonas reinhardtii
Excerpt: (§17) Bleaching herbicides with a mode of action in plastoquinone or tocopherol biosynthesis can inhibit algae growth (Tables 14 and 15). These effects can be partly reversed by intermediates of homogentisic acid biosynthesis (Table 14). To generate mutations conferring “coumarone-derivative herbicide” resistance in HPPD or HST genes, chemical or UV mutagenesis can be used. Especially unicellular organisms like Chlamydomonas reinhardtii or Scenedesmus obliquus are useful for identifying dominant mutations in herbicide resistance.
as §15

[13] = test system: Scenedesmus obliquus; experiment: S. obliquus growth inhibition; type: cell-based
Excerpt: as §17, §15

[14] = read-out: IC50 of growth inhibition

T2 sequence (P93836 whole entry Q293H): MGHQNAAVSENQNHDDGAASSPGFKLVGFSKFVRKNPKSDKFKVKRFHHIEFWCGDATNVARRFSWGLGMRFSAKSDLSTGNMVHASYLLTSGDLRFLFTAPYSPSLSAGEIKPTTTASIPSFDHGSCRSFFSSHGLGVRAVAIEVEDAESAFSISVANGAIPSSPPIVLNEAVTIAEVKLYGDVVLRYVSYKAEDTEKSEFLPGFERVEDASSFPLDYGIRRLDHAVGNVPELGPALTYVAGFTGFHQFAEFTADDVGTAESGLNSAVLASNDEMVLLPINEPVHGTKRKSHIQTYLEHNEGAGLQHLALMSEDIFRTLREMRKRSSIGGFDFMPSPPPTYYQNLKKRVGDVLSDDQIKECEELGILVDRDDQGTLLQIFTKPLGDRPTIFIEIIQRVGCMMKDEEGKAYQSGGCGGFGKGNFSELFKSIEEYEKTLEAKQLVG
T1 sequence (P93836 whole entry Q293N): as the sequence (P93836 whole entry Q293H) above, with H293N counted along it
Chlamydomonas HPPD1, sequence (A0A2K3DET7 entry or part of it): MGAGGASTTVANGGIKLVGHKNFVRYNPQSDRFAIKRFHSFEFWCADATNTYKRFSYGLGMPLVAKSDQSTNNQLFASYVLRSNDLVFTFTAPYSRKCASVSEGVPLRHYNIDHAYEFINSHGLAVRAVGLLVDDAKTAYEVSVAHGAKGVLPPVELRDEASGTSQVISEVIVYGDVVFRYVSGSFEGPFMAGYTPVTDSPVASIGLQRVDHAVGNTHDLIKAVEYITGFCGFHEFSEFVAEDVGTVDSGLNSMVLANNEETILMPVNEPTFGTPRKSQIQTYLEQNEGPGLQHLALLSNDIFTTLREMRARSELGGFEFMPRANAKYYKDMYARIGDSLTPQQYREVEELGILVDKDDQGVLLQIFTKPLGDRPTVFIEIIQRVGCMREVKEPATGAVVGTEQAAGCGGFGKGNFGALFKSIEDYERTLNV

Which Ki [1] does the source give for `O=S1(=O)C(c2ccc(Cl)cc2Cl)=C(O)c2ncccc2N1CC(F)F` [Inhibitor 2, 3-(2,4-dichlorophenyl)-1-(2,2-difluoroethyl)-2,2-dioxo-pyrido[3,2-c]thiazin-4-ol] here?
Its Ki is 0.044 µM.

What about the Ki [2] of the same compound?
Its Ki is 0.019 µM.

And the Ki [3]?
The Ki was 0.013 µM.

And the Ki [4]?
Its Ki is 0.139 µM.

Which results are given for `CS(=O)(=O)c1ccc(C(=O)C2C(=O)CCCC2=O)c([N+](=O)[O-])c1` [Mesotrione, reference compound]?
IC50 [5, 14]: 540 µM; IC50 [6]: 450 µM; IC50 [7]: > 600 µM; IC50 [8]: 30 µM; IC50 [9, 14]: > 600 µM; IC50 [10, 14]: > 600 µM; IC50 [11, 14]: > 600 µM

Which “Growth inihibition [%] C. reinhardtii (CC-503)” value ([12]; c 1 * 10^−4 M) does the source give for `C#Cc1ccc(-c2c(O)c3ncccc3oc2=O)c(C(F)(F)F)c1` [drawing 20] here?
Its value is 61%.

And the “Growth inihibition [%] C. reinhardtii (CC-503) + Homogentisic acid” value ([12]; c 1 * 10^−4 M)?
The value was 43%.

What about the “Growth inihibition [%] C. reinhardtii (CC-503)” value ([12]; c 5 * 10^−4 M) of the same compound?
Its value is 90%.

And the “Growth inihibition [%] C. reinhardtii (CC-503) + Homogentisic acid” value ([12]; c 5 * 10^−4 M)?
Its value is 67%.

`C#Cc1ccc(-c2c(O)c3ncccc3oc2=O)c(C(F)(F)F)c1` [drawing 21, 3-[4-ethynyl-2-(trifluoromethyl)phenyl]-4-hydroxy-pyrano[3,2-b]pyridin-2-one] was tested. Which “Growth inihibition [%] Scenedesmus obliquus” value ([13]; c 1 * 10^−4 M) did it give?
The value was 100%.

What about the “Growth inihibition [%] Scenedesmus obliquus” value ([13]; c 1 * 10^−5 M) of the same compound?
The value was 77%.

For `Cc1c(-c2c(O)c3ncccc3oc2=O)ccc(S(C)(=O)=O)c1C1=NOC(C)C1` (stereo not drawn) [“coumarone-derivative herbicides” 1, 4-hydroxy-3-[2-methyl-3-(5-methyl-4,5-dihydroisoxazol-3-yl)-4-methylsulfonyl-phenyl]pyrano[3,2-b]pyridin-2-one], which IC50 ([5]; strain CMr15, read-out: IC50 of growth inhibition) is on record?
The IC50 was greater than 1000 µM.

What about the IC50 [6] of the same compound?
The IC50 was greater than 1000 µM.

And the IC50 [7]?
Its IC50 is 950 µM.

And the IC50 ([8]; strain CC1961 wild-type)?
Its IC50 is 760 µM.

And the IC50 ([9]; strain CMr06, read-out: IC50 of growth inhibition)?
The IC50 was greater than 1000 µM.

What about the IC50 ([10]; strain CMr04, read-out: IC50 of growth inhibition) of the same compound?
Its IC50 is greater than 1000 µM.

What about the IC50 ([11]; strain CMr05, read-out: IC50 of growth inhibition) of the same compound?
The IC50 was greater than 1000 µM.
